In publication PMC13044524 (Molecular Cancer Therapeutics, 2025):

What was measured:
uterine tissue = assay: Rat uterine wet weight assay; format: in vivo, Sprague–Dawley CD-IGS rats; details: immature rats; for epithelia height of uterine tissue (histologic staining): 3 days, compared with vehicle; for uterine wet weight (UWW): once daily for 3 days
MCF-7 cells = assay: Cell proliferation assay, MCF-7; format: cell-based; details: Homo sapiens, MCF7, 144 h, read-out: IC50 E2-mediated proliferation
[1] = system: bone (femur and tibia) of OVX mice; assay: Osteoporosis; format: in vivo, C57BL/6 mice; details: 12 weeks of treatment

SMILES: C[C@@H]1Cc2c([nH]c3ccccc23)[C@@H](c2c(F)cc(/C=C/C(=O)O)cc2F)N1CC(C)(C)F [AZD9496, (E)-3-(3,5-Difluoro-4-((1R,3R)-2-(2-fluoro-2-methylpropyl)-3-methyl-2,3,4,9-tetrahydro-1H-pyrido[3,4-b]indol-1-yl)phenyl)acrylic acid]
- epithelia height of uterine tissue (histologic staining) (uterine tissue): slightly increased
- uterine wet weight (UWW) (uterine tissue): did not affect uterine weight significantly

SMILES: C[C@]12CC[C@@H]3c4ccc(O)cc4C[C@@H](CCCCCCCCC[S+]([O-])CCCC(F)(F)C(F)(F)F)[C@H]3[C@@H]1CC[C@@H]2O (stereo partly drawn) [Fulvestrant]
- IC50 (MCF-7 cells): 0.2 nM
- bone mineral density (BMD) of femur and tibia [1]: further decreased BMD
- uterine wet weight (UWW) (uterine tissue): seemed to decrease uterine weight

SMILES: CC/C(=C(\c1ccccc1)c1ccc(OCCN(C)C)cc1)c1ccccc1 [Tamoxifen]
- bone mineral density (BMD) of femur and tibia [1]: significantly increased BMD
- epithelia height of uterine tissue (histologic staining) (uterine tissue): dramatically increased
- uterine wet weight (UWW) (uterine tissue): significantly increase UWW

SMILES: CCNCCc1ccc(CN(CC)c2cc(OC)ccc2[C@@H]2CCc3cc(O)ccc3C2)cc1 [elacestrant]
- IC50 (MCF-7 cells): 0.3 nM
